Laboratory results reported in the NIST ThermoML archive (doi:10.1016/j.fluid.2007.04.030).
± gives the expanded uncertainty stated by the source.

Assay: xn = mol fraction of the nth substance listed
Details: 101 kPa, Liquid

COc1cc2c(cc1O)CC1c3c(cc(O)c(OC)c3-2)CCN1C (configuration not stated) [boldine] + CCO
mass density [kg/m3]
Details | x1 = 0.00151 | x1 = 0.0036 | x1 = 0.00737 | x1 = 0.01217 | x1 = 0.0177 | x1 = 0.02066 | x1 = 0.02425 | x1 = 0.02539
283.15 K | 801.79 ± 0.56 | 806.58 ± 0.55 | 815.68 ± 0.53 | 826.69 ± 0.51 | 838.83 ± 0.49 | 845.25 ± 0.48 | 852.81 ± 0.46 | 855.28 ± 0.46
288.15 K | 797.54 ± 0.57 | 802.33 ± 0.56 | 811.43 ± 0.54 | 822.44 ± 0.52 | 834.59 ± 0.5 | 841.01 ± 0.48 | 848.57 ± 0.47 | 851.04 ± 0.47
293.15 K | 793.27 ± 0.58 | 798.06 ± 0.57 | 807.16 ± 0.55 | 818.18 ± 0.53 | 830.32 ± 0.51 | 836.74 ± 0.49 | 844.3 ± 0.48 | 846.79 ± 0.47
298.15 K | 788.97 ± 0.59 | 793.77 ± 0.58 | 802.87 ± 0.56 | 813.89 ± 0.54 | 826.03 ± 0.51 | 832.46 ± 0.5 | 840.02 ± 0.49 | 842.51 ± 0.48
303.15 K | 784.65 ± 0.6 | 789.45 ± 0.59 | 798.55 ± 0.57 | 809.57 ± 0.55 | 821.71 ± 0.52 | 828.14 ± 0.51 | 835.71 ± 0.5 | 838.2 ± 0.49
308.15 K | 780.3 ± 0.61 | 785.1 ± 0.6 | 794.2 ± 0.58 | 805.23 ± 0.56 | 817.37 ± 0.53 | 823.79 ± 0.52 | 831.35 ± 0.51 | 833.86 ± 0.5
313.15 K | 775.91 ± 0.61 | 780.71 ± 0.6 | 789.81 ± 0.59 | 800.84 ± 0.56 | 813 ± 0.54 | 819.42 ± 0.53 | 826.97 ± 0.51 | 829.49 ± 0.51
318.15 K | 771.49 ± 0.62 | 776.27 ± 0.61 | 785.38 ± 0.6 | 796.41 ± 0.57 | 808.57 ± 0.55 | 815 ± 0.54 | 822.56 ± 0.52 | 825.07 ± 0.52
323.15 K | 767.01 ± 0.63 | 771.79 ± 0.62 | 780.9 ± 0.6 | 791.93 ± 0.58 | 804.1 ± 0.56 | 810.54 ± 0.55 | 818.09 ± 0.53 | 820.6 ± 0.53
328.15 K | 762.47 ± 0.64 | 767.24 ± 0.63 | 776.37 ± 0.61 | 787.4 ± 0.59 | 799.57 ± 0.57 | 806.01 ± 0.56 | 813.57 ± 0.54 | 816.08 ± 0.54
333.15 K | 757.86 ± 0.65 | 762.64 ± 0.64 | 771.76 ± 0.62 | 782.8 ± 0.6 | 794.98 ± 0.58 | 801.42 ± 0.57 | 808.99 ± 0.55 | 811.5 ± 0.55

COc1cc2c(cc1O)CC1c3c(cc(O)c(OC)c3-2)CCN1C (configuration not stated) [boldine] + CO
mass density [kg/m3]
Details | x1 = 0.00099 | x1 = 0.002 | x1 = 0.00302 | x1 = 0.00406 | x1 = 0.00513 | x1 = 0.00788 | x1 = 0.01077 | x1 = 0.01696 | x1 = 0.02389
283.15 K | 804.63 ± 0.56 | 808.15 ± 0.55 | 811.7 ± 0.54 | 815.24 ± 0.54 | 818.83 ± 0.53 | 827.92 ± 0.51 | 837.15 ± 0.49 | 856.15 ± 0.46 | 875.72 ± 0.42
288.15 K | 799.96 ± 0.57 | 803.48 ± 0.56 | 807.04 ± 0.55 | 810.59 ± 0.55 | 814.19 ± 0.54 | 823.28 ± 0.52 | 832.53 ± 0.5 | 851.55 ± 0.47 | 871.15 ± 0.43
293.15 K | 795.27 ± 0.58 | 798.79 ± 0.57 | 802.35 ± 0.56 | 805.91 ± 0.55 | 809.51 ± 0.55 | 818.62 ± 0.53 | 827.88 ± 0.51 | 846.93 ± 0.47 | 866.56 ± 0.44
298.15 K | 790.57 ± 0.59 | 794.1 ± 0.58 | 797.66 ± 0.57 | 801.22 ± 0.56 | 804.83 ± 0.56 | 813.95 ± 0.54 | 823.21 ± 0.52 | 842.29 ± 0.48 | 861.96 ± 0.45
303.15 K | 785.86 ± 0.59 | 789.39 ± 0.59 | 792.96 ± 0.58 | 796.52 ± 0.57 | 800.14 ± 0.57 | 809.27 ± 0.55 | 818.54 ± 0.53 | 837.63 ± 0.49 | 857.34 ± 0.46
308.15 K | 781.12 ± 0.6 | 784.66 ± 0.6 | 788.23 ± 0.59 | 791.8 ± 0.58 | 795.42 ± 0.58 | 804.56 ± 0.56 | 813.85 ± 0.54 | 832.96 ± 0.5 | 852.69 ± 0.47
313.15 K | 776.35 ± 0.61 | 779.89 ± 0.61 | 783.47 ± 0.6 | 787.05 ± 0.59 | 790.67 ± 0.59 | 799.82 ± 0.57 | 809.13 ± 0.55 | 828.27 ± 0.51 | 848.03 ± 0.48
318.15 K | 771.55 ± 0.62 | 775.1 ± 0.62 | 778.68 ± 0.61 | 782.26 ± 0.6 | 785.89 ± 0.6 | 795.05 ± 0.58 | 804.37 ± 0.56 | 823.55 ± 0.52 | 843.34 ± 0.48
323.15 K | 766.71 ± 0.63 | 770.26 ± 0.63 | 773.84 ± 0.62 | 777.43 ± 0.61 | 781.07 ± 0.61 | 790.25 ± 0.59 | 799.58 ± 0.57 | 818.78 ± 0.53 | 838.61 ± 0.49
328.15 K | 761.83 ± 0.64 | 765.38 ± 0.64 | 768.97 ± 0.63 | 772.57 ± 0.62 | 776.2 ± 0.62 | 785.4 ± 0.6 | 794.75 ± 0.58 | 813.97 ± 0.54 | 833.84 ± 0.5
333.15 K | 756.89 ± 0.65 | 760.45 ± 0.65 | 764.05 ± 0.64 | 767.65 ± 0.63 | 771.29 ± 0.63 | 780.5 ± 0.61 | 789.86 ± 0.59 | 809.11 ± 0.55 | 829.02 ± 0.51
